Experimental data: PubChem BioAssay (NCI)
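The compound was tested at five concentrations on cells cultured in 96-well plates, with a 48-hour exposure period. At the GI50, growth is halved. TGI is the concentration that stops growth completely.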 Calls of active or inactive are those of the source. Cut-off read from the data, not from the text of the source: active = GI50 below about 0.43 µM; inactive = the rest.

Legend:
Test in all cases: growth of human tumour cells (NCI), 48 h
A498 renal = test system: A498 renal
A549 NSCLC = test system: A549 NSCLC
ACHN renal = test system: ACHN renal
BT-549 breast = test system: BT-549 breast
CAKI-1 renal = test system: CAKI-1 renal
CCRF-CEM leukemia = test system: CCRF-CEM leukemia
DU-145 prostate = test system: DU-145 prostate
EKVX NSCLC = test system: EKVX NSCLC
HCC-2998 colon = test system: HCC-2998 colon
HCT-116 colon = test system: HCT-116 colon
HCT-15 colon = test system: HCT-15 colon
HL-60(TB) leukemia = test system: HL-60(TB) leukemia
HOP-92 NSCLC = test system: HOP-92 NSCLC
HS 578T breast = test system: HS 578T breast
HT29 colon = test system: HT29 colon
IGROV1 ovarian = test system: IGROV1 ovarian
K-562 leukemia = test system: K-562 leukemia
KM12 colon = test system: KM12 colon
LOX IMVI melanoma = test system: LOX IMVI melanoma
M14 melanoma = test system: M14 melanoma
MALME-3M melanoma = test system: MALME-3M melanoma
MCF7 breast = test system: MCF7 breast
MDA-MB-231 breast = test system: MDA-MB-231 breast
MDA-MB-435 = test system: MDA-MB-435
MOLT-4 leukemia = test system: MOLT-4 leukemia
NCI-H226 lung = test system: NCI-H226 lung
NCI-H23 lung = test system: NCI-H23 lung
NCI-H460 lung = test system: NCI-H460 lung
NCI/ADR-RES ovarian = test system: NCI/ADR-RES ovarian
OVCAR-3 ovarian = test system: OVCAR-3 ovarian
OVCAR-4 ovarian = test system: OVCAR-4 ovarian
OVCAR-5 ovarian = test system: OVCAR-5 ovarian
OVCAR-8 ovarian = test system: OVCAR-8 ovarian
PC-3 prostate = test system: PC-3 prostate
RXF 393 renal = test system: RXF 393 renal
SF-268 CNS = test system: SF-268 CNS
SF-295 CNS = test system: SF-295 CNS
SF-539 CNS = test system: SF-539 CNS
SK-MEL-2 melanoma = test system: SK-MEL-2 melanoma
SK-MEL-28 melanoma = test system: SK-MEL-28 melanoma
SK-MEL-5 melanoma = test system: SK-MEL-5 melanoma
SK-OV-3 ovarian = test system: SK-OV-3 ovarian
SN12C renal = test system: SN12C renal
SNB-19 CNS = test system: SNB-19 CNS
SNB-75 CNS = test system: SNB-75 CNS
SR leukemia = test system: SR leukemia
SW-620 colon = test system: SW-620 colon
T-47D breast = test system: T-47D breast
TK-10 renal = test system: TK-10 renal
UACC-257 melanoma = test system: UACC-257 melanoma
UACC-62 melanoma = test system: UACC-62 melanoma
UO-31 renal = test system: UO-31 renal
COLO 205 colon = test system: COLO 205 colon
HOP-62 NSCLC = test system: HOP-62 NSCLC
U251 CNS = test system: U251 CNS
786-0 renal = test system: 786-0 renal
NCI-H522 lung = test system: NCI-H522 lung

## COc1cc(-c2ccc(-c3ccc(C(=N)N)cc3)s2)cc(OC)c1OC
A498 renal
  GI50: 215 nM
  TGI: 3960 nM
A549 NSCLC
  GI50: 3630 nM
  TGI: 14700 nM
ACHN renal
  GI50: 1730 nM
  TGI: 3190 nM
BT-549 breast
  GI50: 2690 nM
  TGI: 9400 nM
CAKI-1 renal
  GI50: 1720 nM
  TGI: 3220 nM
CCRF-CEM leukemia
  GI50: 2930 nM
  TGI: 11700 nM
DU-145 prostate
  GI50: 2410 nM
  TGI: 6090 nM
EKVX NSCLC
  GI50: 4690 nM
  TGI: 19700 nM
HCC-2998 colon
  GI50: 1790 nM
  TGI: 3240 nM
HCT-116 colon
  GI50: 1560 nM
  TGI: 3190 nM
HCT-15 colon
  GI50: 2250 nM
  TGI: 5290 nM
HL-60(TB) leukemia
  GI50: 2130 nM
  TGI: 4750 nM
HOP-92 NSCLC
  GI50: 1290 nM
  TGI: 3720 nM
HS 578T breast
  GI50: 1750 nM
  TGI: 4160 nM
HT29 colon
  GI50: 1500 nM
  TGI: 5560 nM
IGROV1 ovarian
  GI50: 5000 nM
  TGI: 18500 nM
K-562 leukemia
  GI50: 2630 nM
  TGI: 10200 nM
KM12 colon
  GI50: 1670 nM
  TGI: 3350 nM
LOX IMVI melanoma
  GI50: 1720 nM
  TGI: 3100 nM
M14 melanoma
  GI50: 1620 nM
  TGI: 3360 nM
MALME-3M melanoma
  GI50: 1460 nM
  TGI: 2900 nM
MCF7 breast
  GI50: 1650 nM
  TGI: 4360 nM
MDA-MB-231 breast
  GI50: 1620 nM
  TGI: 3260 nM
MDA-MB-435
  GI50: 1570 nM
  TGI: 3010 nM
MOLT-4 leukemia
  GI50: 2200 nM
  TGI: 6150 nM
NCI-H226 lung
  GI50: 2160 nM
  TGI: 6580 nM
NCI-H23 lung
  GI50: 2250 nM
  TGI: 5400 nM
NCI-H460 lung
  GI50: 1830 nM
  TGI: 3470 nM
NCI/ADR-RES ovarian
  GI50: 7880 nM
  TGI: 23600 nM
OVCAR-3 ovarian
  GI50: 2010 nM
  TGI: 3870 nM
OVCAR-4 ovarian
  GI50: 1760 nM
  TGI: 4030 nM
OVCAR-5 ovarian
  GI50: 3460 nM
  TGI: 13800 nM
OVCAR-8 ovarian
  GI50: 2340 nM
  TGI: 5870 nM
PC-3 prostate
  GI50: 2940 nM
  TGI: 11200 nM
RXF 393 renal
  GI50: 2100 nM
  TGI: 4080 nM
SF-268 CNS
  GI50: 2410 nM
  TGI: 7360 nM
SF-295 CNS
  GI50: 1770 nM
  TGI: 3450 nM
SF-539 CNS
  GI50: 1620 nM
  TGI: 3030 nM
SK-MEL-2 melanoma
  GI50: 1910 nM
  TGI: 3730 nM
SK-MEL-28 melanoma
  GI50: 1600 nM
  TGI: 3050 nM
SK-MEL-5 melanoma
  GI50: 1720 nM
  TGI: 3100 nM
SK-OV-3 ovarian
  GI50: 2450 nM
  TGI: 6650 nM
SN12C renal
  GI50: 4500 nM
  TGI: 18800 nM
SNB-19 CNS
  GI50: 2360 nM
  TGI: 6560 nM
SNB-75 CNS
  GI50: 1600 nM
  TGI: 6190 nM
SR leukemia
  GI50: 2080 nM
  TGI: 5430 nM
SW-620 colon
  GI50: 1730 nM
  TGI: 3310 nM
T-47D breast
  GI50: 1900 nM
  TGI: 4920 nM
TK-10 renal
  GI50: 2050 nM
  TGI: 4020 nM
UACC-257 melanoma
  GI50: 2020 nM
  TGI: 4370 nM
UACC-62 melanoma
  GI50: 2770 nM
  TGI: 10300 nM
UO-31 renal
  GI50: 3370 nM
  TGI: 14800 nM

## O=c1cc(-c2cc(O)c(O)c(-c3c(O)cc(O)c4c(=O)cc(-c5ccc(O)c(O)c5)oc34)c2)oc2cc(O)cc(O)c12
A498 renal
  outcome: inactive
A549 NSCLC
  outcome: inactive
BT-549 breast
  outcome: inactive
CAKI-1 renal
  outcome: inactive
CCRF-CEM leukemia
  outcome: inactive
COLO 205 colon
  outcome: inactive
DU-145 prostate
  outcome: inactive
EKVX NSCLC
  outcome: inactive
HCC-2998 colon
  outcome: inactive
HCT-116 colon
  outcome: inactive
HCT-15 colon
  outcome: inactive
HL-60(TB) leukemia
  outcome: inactive
HOP-62 NSCLC
  outcome: inactive
HOP-92 NSCLC
  outcome: inactive
HS 578T breast
  outcome: inactive
HT29 colon
  outcome: inactive
IGROV1 ovarian
  outcome: inactive
K-562 leukemia
  outcome: inactive
LOX IMVI melanoma
  outcome: inactive
M14 melanoma
  outcome: inactive
MALME-3M melanoma
  outcome: inactive
MCF7 breast
  outcome: inactive
MDA-MB-231 breast
  outcome: inactive
MDA-MB-435
  outcome: inactive
MOLT-4 leukemia
  outcome: inactive
NCI-H23 lung
  outcome: inactive
NCI-H460 lung
  outcome: inactive
NCI/ADR-RES ovarian
  outcome: inactive
OVCAR-3 ovarian
  outcome: inactive
OVCAR-4 ovarian
  outcome: inactive
OVCAR-5 ovarian
  outcome: inactive
OVCAR-8 ovarian
  outcome: inactive
PC-3 prostate
  outcome: inactive
RXF 393 renal
  outcome: inactive
SF-268 CNS
  outcome: inactive
SF-295 CNS
  outcome: inactive
SF-539 CNS
  outcome: inactive
SK-MEL-2 melanoma
  outcome: inactive
SK-MEL-28 melanoma
  outcome: inactive
SK-MEL-5 melanoma
  outcome: inactive
SK-OV-3 ovarian
  outcome: inactive
SN12C renal
  outcome: inactive
SNB-19 CNS
  outcome: inactive
SNB-75 CNS
  outcome: inactive
SR leukemia
  outcome: inactive
SW-620 colon
  outcome: inactive
T-47D breast
  outcome: inactive
TK-10 renal
  outcome: inactive
U251 CNS
  outcome: inactive
UACC-257 melanoma
  outcome: inactive
UACC-62 melanoma
  outcome: inactive
UO-31 renal
  outcome: inactive

## NCCCOc1cc2ccccc2cc1C(=O)NCCOc1nc2ccccc2cc1C(=O)Nc1ccc(Cl)cc1O
786-0 renal
  GI50: 1170 nM
  TGI: 2490 nM
A498 renal
  GI50: 342 nM
  TGI: 3450 nM
ACHN renal
  GI50: 1070 nM
  TGI: 2300 nM
BT-549 breast
  GI50: 1370 nM
  TGI: 3030 nM
CAKI-1 renal
  GI50: 1330 nM
  TGI: 2930 nM
COLO 205 colon
  GI50: 1100 nM
  TGI: 2380 nM
DU-145 prostate
  GI50: 1340 nM
  TGI: 2670 nM
HCC-2998 colon
  GI50: 1670 nM
  TGI: 3180 nM
HCT-116 colon
  GI50: 252 nM
  TGI: 2170 nM
HCT-15 colon
  GI50: 818 nM
  TGI: 2110 nM
HL-60(TB) leukemia
  GI50: 621 nM
  TGI: 2370 nM
HOP-62 NSCLC
  GI50: 721 nM
  TGI: 2370 nM
HOP-92 NSCLC
  GI50: 126 nM
  TGI: 1320 nM
HS 578T breast
  GI50: 1630 nM
  TGI: 3890 nM
HT29 colon
  GI50: 1500 nM
  TGI: 3120 nM
IGROV1 ovarian
  GI50: 1220 nM
  TGI: 2800 nM
K-562 leukemia
  GI50: 544 nM
  TGI: 3300 nM
KM12 colon
  GI50: 1050 nM
  TGI: 2400 nM
LOX IMVI melanoma
  GI50: 1070 nM
  TGI: 2390 nM
M14 melanoma
  GI50: 1310 nM
  TGI: 2750 nM
MALME-3M melanoma
  GI50: 1280 nM
  TGI: 2790 nM
MCF7 breast
  GI50: 295 nM
  TGI: 1920 nM
MDA-MB-231 breast
  GI50: 1170 nM
  TGI: 2460 nM
MDA-MB-435
  GI50: 1000 nM
  TGI: 2370 nM
NCI-H23 lung
  GI50: 941 nM
  TGI: 2410 nM
NCI-H460 lung
  GI50: 482 nM
  TGI: 1870 nM
NCI-H522 lung
  GI50: 1340 nM
  TGI: 2840 nM
NCI/ADR-RES ovarian
  GI50: 1730 nM
  TGI: 3350 nM
OVCAR-3 ovarian
  GI50: 882 nM
  TGI: 2250 nM
OVCAR-4 ovarian
  GI50: 75.5 nM
  TGI: 1820 nM
OVCAR-5 ovarian
  GI50: 1500 nM
  TGI: 2830 nM
OVCAR-8 ovarian
  GI50: 1250 nM
  TGI: 3100 nM
PC-3 prostate
  GI50: 269 nM
  TGI: 1990 nM
RXF 393 renal
  GI50: 1530 nM
  TGI: 3020 nM
SF-268 CNS
  GI50: 1120 nM
  TGI: 2690 nM
SF-295 CNS
  GI50: 1060 nM
  TGI: 2470 nM
SF-539 CNS
  GI50: 1120 nM
  TGI: 2340 nM
SK-MEL-2 melanoma
  GI50: 1870 nM
  TGI: 3570 nM
SK-MEL-28 melanoma
  GI50: 1300 nM
  TGI: 2570 nM
SK-OV-3 ovarian
  GI50: 1340 nM
  TGI: 2630 nM
SN12C renal
  GI50: 1330 nM
  TGI: 2740 nM
SNB-19 CNS
  GI50: 1310 nM
  TGI: 2760 nM
SNB-75 CNS
  GI50: 1100 nM
  TGI: 2300 nM
SR leukemia
  GI50: 224 nM
  TGI: 2110 nM
SW-620 colon
  GI50: 82.9 nM
  TGI: 2060 nM
T-47D breast
  GI50: 517 nM
  TGI: 2390 nM
TK-10 renal
  GI50: 1300 nM
  TGI: 2760 nM
U251 CNS
  GI50: 1050 nM
  TGI: 2410 nM
UACC-257 melanoma
  GI50: 678 nM
  TGI: 2110 nM
UACC-62 melanoma
  GI50: 270 nM
  TGI: 2030 nM
UO-31 renal
  GI50: 1190 nM
  TGI: 2820 nM
